This passage reports IC50 results from ChEMBL document CHEMBL5604063, “ASAP - DENV-2 NS2B-NS3 protease fluorescence dose response” (2024).

Experiment [1] addresses T1, Genome polyprotein (dengue virus type 2, UniProt P29990). The class given is functional, Thailand/16681/1984.
The target in experiment [2] is T1, Genome polyprotein. The class given is functional, Thailand/16681/1984. This is another data set of the same source.

Values joined by “and” are separate entries in the source; they are usually repeats but may differ in a detail not shown here. Equal entries are not always repeated.

T1 sequence (P29990 1346-1475 limits assumed): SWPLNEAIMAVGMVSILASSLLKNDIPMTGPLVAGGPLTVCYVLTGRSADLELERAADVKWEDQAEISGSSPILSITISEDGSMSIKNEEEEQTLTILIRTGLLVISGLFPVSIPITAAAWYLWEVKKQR
T1 sequence (P29990 1476-2093 limits assumed): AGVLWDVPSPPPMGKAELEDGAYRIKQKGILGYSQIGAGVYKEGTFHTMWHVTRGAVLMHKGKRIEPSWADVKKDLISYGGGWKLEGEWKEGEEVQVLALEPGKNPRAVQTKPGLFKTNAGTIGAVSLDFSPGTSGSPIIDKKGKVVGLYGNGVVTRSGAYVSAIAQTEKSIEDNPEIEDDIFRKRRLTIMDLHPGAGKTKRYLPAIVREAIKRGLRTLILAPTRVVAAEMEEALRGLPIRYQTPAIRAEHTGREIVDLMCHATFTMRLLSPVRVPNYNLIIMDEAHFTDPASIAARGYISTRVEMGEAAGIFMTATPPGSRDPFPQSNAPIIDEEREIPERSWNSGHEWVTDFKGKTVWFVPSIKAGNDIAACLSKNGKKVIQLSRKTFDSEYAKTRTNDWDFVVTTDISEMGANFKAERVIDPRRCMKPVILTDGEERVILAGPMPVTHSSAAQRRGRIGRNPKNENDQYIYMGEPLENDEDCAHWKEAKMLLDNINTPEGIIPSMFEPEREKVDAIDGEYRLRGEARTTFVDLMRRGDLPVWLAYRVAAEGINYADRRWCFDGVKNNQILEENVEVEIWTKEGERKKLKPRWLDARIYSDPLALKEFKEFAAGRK

One may read the IC50 as the concentration needed to halve the response being measured. A lower IC50 goes with greater potency in that assay. Turning to `NCc1cc(NC(=O)c2cc(Cl)cc(NC(=O)OCc3ccccc3)c2)cc(C2CC2)c1`, the IC50 was 72 µM against Genome polyprotein [1] and above 100 µM against Genome polyprotein [2].
For `NCc1cccc(NC(=O)c2cc(Cl)cc3c2NCCC3)c1`, the IC50 was above 99.5 µM against Genome polyprotein [1] and above 100 µM on Genome polyprotein [2].
As to `O=C(Nc1ccc2c(c1)CNC2)c1cc(F)cc2[nH]cnc12`, the IC50 against Genome polyprotein [1] is 99 µM; at Genome polyprotein [2], above 100 µM.
For `O=C(Nc1ccc2c(c1)CNC2)c1cc(Cl)cc2[nH]c(CN3CCCC3=O)cc12`, in that order: above 99.5 µM and above 100 µM.
In the case of `O=C1Cc2cc(C(=O)Nc3ccc4c(c3)CNC4)ccc2N1`, the IC50 on Genome polyprotein [1] was 9.95 µM and 7.04 µM and 6.09 µM; at Genome polyprotein [2] it was above 100 µM.
Regarding `O=C(Nc1cccc(-n2nn[nH]c2=O)c1)c1cc(Cl)cc(C2CC2)c1`, the values for the IC50 on Genome polyprotein [1] and against Genome polyprotein [2] were 98.7 µM and 50.1 µM, respectively.
For `Cn1ccc(-c2cc(F)cc(C(=O)Nc3ccc4c(c3)CNC4)c2)cc1=O` the same measures were above 99.5 µM and above 100 µM.
In the case of `Cc1c(C(=O)Nc2cc(CCCN)ccn2)cc(C2CC2)n1C`, the IC50 at Genome polyprotein [1] is 74.6 µM and 35.9 µM; on Genome polyprotein [2] it was above 100 µM.
Regarding `Cn1nc(C(=O)Nc2cccc(CN)c2)c2c1CCS(=O)(=O)C2`, the half-maximal inhibitory concentration (IC50) is above 99.5 µM against Genome polyprotein [1] and above 100 µM against Genome polyprotein [2].
For `CCCN(C)C(=O)Cn1ccnc(N2CC[C@H](CO)C2)c1=O`, in that order: above 99.5 µM and above 100 µM.
For `Cn1nc(C(=O)Nc2cccc(CN)c2)cc1C1CC1`, in that order: above 99.5 µM and above 100 µM.
For `C[C@H](NC(=O)c1cccc2c1CC(=O)N2)c1cc2cnccc2o1`, the IC50 is above 99.5 µM at Genome polyprotein [1] and above 100 µM against Genome polyprotein [2].
As for `COc1ccccc1Cn1cnc2cc(C(=O)Nc3ccc4c(c3)CNC4)ccc21`, the IC50 against Genome polyprotein [1] was above 99.5 µM; on Genome polyprotein [2], above 100 µM.
Regarding `O=C(Nc1ccc2c(c1)CNC2)N1CCC[C@](O)(c2ccccc2)C1`, the half-inhibitory concentration (IC50) against Genome polyprotein [1] was above 99.5 µM; on Genome polyprotein [2], above 100 µM.
For `O=C(c1cc(Cl)cc2[nH]ncc12)N1C[C@H]2CNC[C@H]2C1` the same measures were above 99.5 µM and above 100 µM.
For `NC[C@H]1C[C@H]1NC(=O)c1cc(Cl)cc(NC(=O)OCc2ccccc2)c1` the same measures were above 99.5 µM and above 100 µM.
For `NCCOc1ccnc(NS(=O)(=O)c2ccc(Oc3ccccc3Cl)cc2)c1` the same measures were above 99.5 µM and above 100 µM.
`O=C1OCc2ccc(NC(=O)[C@H]3CNC4(CCCC4)C3)cc21`: the IC50 is above 99.5 µM against Genome polyprotein [1] and above 100 µM at Genome polyprotein [2].
As to `O=C(Nc1ccc2c(c1)CNC2)c1cc(F)cc(-c2ccncc2)c1`, the concentration for half-maximal inhibition (IC50) against Genome polyprotein [1] is above 99.5 µM; at Genome polyprotein [2], above 100 µM.
For `COc1cc(Br)cc2c1NC(=O)[C@]2(Nc1ccc2c(c1)CNC2)C(N)=O`, in that order: above 99.5 µM and above 100 µM.
For `C[C@@]1(CNC(=O)c2cc(Cl)cc(NC(=O)OCc3ccccc3)c2)CNCCOC1`, in that order: above 99.5 µM and above 100 µM.
For `Cc1nnc(CN2CCC([C@H](NC(=O)OCc3ccccc3)C(=O)Nc3cccc(CN)c3)CC2)s1` the same measures were above 99.5 µM and above 100 µM.
As for `O=C1Cc2c(cccc2C(=O)Nc2nnc3n2CCCS3)N1`, the IC50 against Genome polyprotein [1] was above 99.5 µM; against Genome polyprotein [2], above 100 µM.
For `CCCCS(=O)(=O)N1CCC([C@H](NC(=O)OCc2ccccc2)C(=O)Nc2cccc(CN)c2)CC1` the same measures were above 99.5 µM and 99 µM.
Consider `NCc1cccc(NC(=O)[C@@H](NC(=O)OCc2ccccc2)c2ccc(OCC3CCOCC3)cc2)c1`, for which the 50% inhibitory concentration (IC50) against Genome polyprotein [1] was 86 µM; at Genome polyprotein [2], above 100 µM.
For `O=C1Cc2c(C(=O)Nc3ccc4c(c3)CNC4)ccnc2N1`, in that order: above 99.5 µM and above 100 µM.
Regarding `FC(F)(F)Oc1cc(Cl)cc2c(CN3CCC(c4cscn4)CC3)c[nH]c12`, the IC50 at Genome polyprotein [1] is above 99.5 µM; at Genome polyprotein [2], above 100 µM.
For `COc1cn(-c2cccc(C(F)(F)F)c2)nc1C(=O)Nc1cccc(CN)c1` the same measures were above 99.5 µM and above 100 µM.
For `Clc1cc([C@H](C#CC2CC2)Nc2ccc3c(c2)CNC3)c2cn[nH]c2c1` the same measures were above 99.5 µM and above 100 µM.
For `NCc1ccncc1NS(=O)(=O)c1ccc(Oc2ccccc2Cl)cc1`, in that order: 37.1 µM and above 100 µM.
Consider `O=C(NCc1ccc2c(c1)CCNC2)c1cc(Cl)cc2[nH]ncc12`, for which the IC50 at Genome polyprotein [1] is above 99.5 µM; against Genome polyprotein [2], above 100 µM.
For `COCn1ncc2c(C(=O)Nc3ccc4c(c3)CNC4)cc(Cl)cc21` the same measures were above 99.5 µM and above 100 µM.
For `N#C[C@H](Nc1cc(Cl)cc(C2CC2)c1)c1ccc(-c2nn[nH]n2)cc1`, in that order: 27.2 µM and 17.9 µM.
With `Cc1c(C(=O)Nc2cccc(CS(C)(=O)=O)c2)cc(C2CC2)n1C`, the IC50 at Genome polyprotein [1] was above 99.5 µM; at Genome polyprotein [2] it was above 100 µM.
As to `O=C1Cc2c(cccc2C(=O)Nc2cnc(OC3CCC3)nc2)N1`, the IC50 on Genome polyprotein [1] was above 99.5 µM; at Genome polyprotein [2], above 100 µM.
For `NCc1cc(NC(=O)c2cc(Cl)cc(NC(=O)OCc3ccccc3)c2)cc(C2=CC[C@H](C(=O)O)C2)c1`, in that order: above 99.5 µM and above 100 µM.
Consider `CCc1nc(C)c(C(=O)Nc2cccc(-c3nnn[nH]3)c2)s1`, for which the IC50 against Genome polyprotein [1] is above 99.5 µM; at Genome polyprotein [2] it was above 100 µM.
As for `O=C1Cc2c(cccc2C(=O)Nc2cc(Br)c3ncnn3c2)N1`, the results for the concentration for half-maximal inhibition (IC50) against Genome polyprotein [1] and against Genome polyprotein [2] were above 99.5 µM and above 100 µM, respectively.
With `CCc1cc(Cl)cc(C(=O)Nc2ccc3c(c2)CNC3)c1`, the IC50 on Genome polyprotein [1] was above 99.5 µM; at Genome polyprotein [2], above 100 µM.
For `O=C(Nc1cc([C@H]2CCOC2)ccn1)c1cc(F)cc2[nH]ccc12`, in that order: above 99.5 µM and above 100 µM.
Regarding `Cc1c(C(=O)Nc2ccc3c(c2)CN(C)C3=O)cc(C2CC2)n1C`, the IC50 against Genome polyprotein [1] was above 99.5 µM; at Genome polyprotein [2], above 100 µM.
Regarding `O=C(NCC(F)F)[C@H](Nc1ccc2c(c1)CNC2)c1cc(Br)cc2ccccc12`, the results for the IC50 against Genome polyprotein [1] and against Genome polyprotein [2] were above 99.5 µM and above 100 µM, respectively.
For `NCc1cc(Cl)cc(-c2ccc3[nH]c(C(=O)O)cc3c2)c1`, in that order: above 99.5 µM and above 100 µM.
For `N#Cc1cccc(-c2nc3c(C(=O)Nc4ccc(F)cc4)cc(Cl)cc3[nH]2)c1`, in that order: above 99.5 µM and above 100 µM.
As for `CSc1cc(Cl)cc(C(=O)Nc2cccc(CN)c2)c1`, the IC50 is above 99.5 µM on Genome polyprotein [1] and above 100 µM at Genome polyprotein [2].
For `Cc1c(C(=O)Nc2cc(C(=O)N3CCNC(=O)C3)ccn2)cc(C2CC2)n1C`, in that order: above 99.5 µM and above 100 µM.
For `CC(C)c1nc2c(C(=O)Nc3cccc(-c4nnn[nH]4)c3)cccc2[nH]1` the same measures were above 99.5 µM and above 100 µM.
In the case of `O=C(Nc1ccc2c(c1)CNC2)c1cc(Cl)cc2nn(-c3ccccc3)nc12`, the IC50 was 7.45 µM and 8.05 µM and 6.62 µM at Genome polyprotein [1]; 12.9 µM on Genome polyprotein [2].
As to `O=C(Nc1ccc2c(c1)CNC2)C1(c2ccc(Cl)cc2)CCCC1`, the figures for the IC50 on Genome polyprotein [1] and on Genome polyprotein [2] were above 99.5 µM and above 100 µM, respectively.
For the compound `Cc1ccc(Oc2ncccc2C#N)c(-c2ccc3[nH]c(C(=O)O)cc3c2)c1`, the IC50 was 87.2 µM against Genome polyprotein [1] and above 100 µM against Genome polyprotein [2].
As to `O=S(=O)(Nc1ccc2c(c1)CNC2)c1cccc2[nH]ncc12`, the figures for the IC50 against Genome polyprotein [1] and against Genome polyprotein [2] were above 99.5 µM and above 100 µM, respectively.
Regarding `O=C(Nc1cc(Cl)cc(C(=O)N2CC[C@H](C(=O)O)C2)c1)OCc1ccccc1`, the IC50 on Genome polyprotein [1] is above 99.5 µM; on Genome polyprotein [2], above 100 µM.
Turning to `O=C(Nc1ccc2c(c1)CNC2)c1c(Br)ccc2[nH]ncc12`, the IC50 at Genome polyprotein [1] was above 99.5 µM; on Genome polyprotein [2], above 100 µM.
For `CC(C)NC(=O)[C@H](Nc1cccc(-c2nn[nH]n2)c1)c1cc(Cl)cc(NC(=O)OCc2ccccc2)c1` the same measures were 21.5 µM and 12.2 µM.
For `COC(=O)C(C)(C)NC(=O)[C@H](Nc1ccc2c(c1)CNC2)c1cc(Cl)cc(C2CC2)c1`, in that order: above 99.5 µM and above 100 µM.
Take `O=C(NCC(F)F)[C@H](Nc1ccc2c(c1)CNC2)c1cc(F)cc2[nH]ncc12`: the IC50 against Genome polyprotein [1] was above 99.5 µM; at Genome polyprotein [2], 78.2 µM.
For `NCc1cccc([C@H](C#CCO)Nc2cc(Cl)cc(NC(=O)OCc3ccccc3)c2)c1`, in that order: 64.9 µM and above 100 µM.
`NCc1cccc(NC(=O)c2cc(Cl)cc3c2CCC3)c1`: the IC50 was above 99.5 µM against Genome polyprotein [1] and above 100 µM against Genome polyprotein [2].
On to `COc1cc(C(=O)Nc2cccc(CN)c2)cc(NC(=O)OCc2ccccc2)c1Cl`, for which the IC50 is above 99.5 µM against Genome polyprotein [1] and above 100 µM at Genome polyprotein [2].
As to `CC(C)c1nc2c(C(=O)Nc3cccc(CN)c3)cccc2[nH]1`, the values for the half-inhibitory concentration (IC50) against Genome polyprotein [1] and against Genome polyprotein [2] were above 99.5 µM and above 100 µM, respectively.
`O=C(Nc1cc(Cl)cc(C(=O)NC2(c3nn[nH]n3)CCCC2)c1)OCc1ccccc1`: the IC50 against Genome polyprotein [1] was above 99.5 µM; at Genome polyprotein [2], above 100 µM.
For `Cc1c(C(=O)Nc2cc(C(=O)N[C@H]3CCOC3)ccn2)cc(C2CC2)n1C` the same measures were above 99.5 µM and above 100 µM.
For `N#C[C@H](Nc1ccc2c(c1)CNC2)c1cc(Cl)cc2[nH]ncc12`, in that order: above 99.5 µM and above 100 µM.
For the compound `CC[C@H](Cc1nnn[nH]1)c1ccc(NC(=O)c2cc(Cl)cc(-n3cccc3)c2)cc1`, the IC50 was 26.4 µM on Genome polyprotein [1]; 14.7 µM and 20.9 µM against Genome polyprotein [2].
`CCNC(=O)c1ccnc(NC(=O)c2cc(C3CC3)n(C)c2C)c1`: the IC50 against Genome polyprotein [1] was above 99.5 µM; against Genome polyprotein [2], above 100 µM.
`COc1ccc(OC)c([C@H]2CCCN2C(=O)Nc2ccc3c(c2)CNC3)c1`: the values for the half-inhibitory concentration (IC50) at Genome polyprotein [1] and against Genome polyprotein [2] were above 99.5 µM and above 100 µM, respectively.
In the case of `NCc1cccc(NC(=O)c2cc(Br)cc3[nH]ccc23)c1`, the IC50 against Genome polyprotein [1] was above 99.5 µM; against Genome polyprotein [2], above 100 µM.
On to `O=C(Nc1ccc2c(c1)CNC2)c1cc(Cl)cc2nn(C3CCC3)cc12`, for which the figures for the IC50 against Genome polyprotein [1] and on Genome polyprotein [2] were above 99.5 µM and 89.2 µM, respectively.
`COC(=O)c1cc(NC(=O)c2cc(Cl)cc(NC(=O)OCc3ccccc3)c2)cc(-c2nnn[nH]2)c1`: the IC50 on Genome polyprotein [1] is 6.17 µM; against Genome polyprotein [2], 5.42 µM and 6.24 µM.
